Experiments:
Assay type in all cases: in vivo, human
[1] = tested on: cognitively impaired patients with EDS associated with OSA; test: SHARP clinical study: Digit Symbol Substitution Test subtest of RBANS (DSST RBANS)
Source text: (§1) SHARP (Solriamfetol's Effect on Cognitive Health in Apnea Participants During a Randomized Placebo-controlled Study) was a randomized, double-blind, placebo-controlled, crossover, multicenter, trial in which 59 patients with excessive daytime sleepiness (EDS) and obstructive sleep apnea (OSA), who were experiencing cognitive impairment, were all treated with solriamfetol for 2 weeks, and with placebo for 2 weeks, with the treatment periods separated by 1 week of down-titration and washout. Patients were randomized in a 1:1 ratio either to treatment with solriamfetol followed by placebo (sequence 1), or to treatment with placebo followed by solriamfetol (sequence 2). Solriamfetol was administered orally once daily, starting at 75 mg per day for the first three days and 150 mg per day for the remainder of the 2-week treatment period. The primary outcome measure was the Digit Symbol Substitution Test subtest of the Repeatable Battery for the Assessment of Neuropsychological Status (DSST RBANS). The Digit Symbol Substitution subtest is also referred to as “Coding.” The prespecified primary endpoint was the change from baseline in cognitive function as measured by the DSST RBANS after 2 weeks of treatment (average of the 2-, 4-, 6-, and 8-hour post-dose DSST RBANS scores). […] The secondary endpoints were analyzed in a pre-specified testing sequence. […]

[2] = tested on: cognitively impaired patients with EDS associated with OSA; test: SHARP clinical study: British Columbia Cognitive Complaints Inventory (BC-CCI); conditions: 2 weeks treatment, 150 mg per day
Source text: as §1

[3] = tested on: cognitively impaired patients with EDS associated with OSA; test: SHARP clinical study: Epworth Sleepiness Scale (ESS); conditions: 2 weeks treatment, 150 mg per day
Source text: as §1

[4] = tested on: cognitively impaired patients with EDS associated with OSA; test: SHARP clinical study: adverse events; conditions: solriamfetol treatment, 75 then 150 mg per day oral, 2 weeks
Source text: as §1

In the case of `NC(=O)OC[C@H](N)Cc1ccccc1` [solriamfetol, (R)-2-amino-3-phenylpropyl carbamate], the “effect size, DSST RBANS vs. placebo” value ([1]; 2 weeks treatment, 150 mg per day) is reported as 0.36, the “change from baseline on the DSST RBANS” value ([1]; after 2 weeks oral once daily (75 mg 3 days, then 150 mg), average of 2-, 4-, 6-, 8-hour post-dose scores, placebo 4.75, p=0.009) is reported as 6.49 and the “effect size, BC-CCI overall score vs. placebo” value [2] is reported as 0.43. The “improvement in cognitive function, BC-CCI overall score compared to placebo” value ([2]; p=0.002) was “Statistically significant improvement”, the “effect size, ESS vs. placebo” value [3] was 0.50 and the “improvement on the ESS relative to placebo” value ([3]; p=0.004) was “approximately twice that observed with placebo”. For the same compound, the “adverse event incidence: anxiety” value [4] was 3.4% and the “adverse event incidence: nausea” value [4] was 6.9%.
